Laboratory results taken from patent US9340559B2, “Proteasome inhibitor delanzomib for use in the treatment of lupus” (Cephalon, Inc., priority 2011, dated 2016).

Key:
MRL/lpr mice [1] = assay: Survival / mortality, MRL/lpr mice (Example 1); conditions: for EOS survival, true EOS mouse percentage from starting population: vehicle 92
Description: Six week old lupus-prone, female, MRL/lpr (Jackson Labs, #000485) and non-lupus prone control MRL/MpJ (Jackson Labs, #000486) mice are obtained from Jackson Laboratories (Bar Harbor, Me.) at 6-weeks of age. All mice are maintained on a 24 hour light/dark cycle, with food and water available ad libitum. All experimental animal procedures are approved by and in accordance to the regulations of the Institutional Animal Care and Use Committee (IACUC) of Cephalon, Inc; approved IACUC protocol #03-040 and #03-03-041.
Due to this impaired tolerance mechanism, a percentage of all T and B cells that enter the periphery have a high likelihood of responding to self protein/tissues and thus initiate autoimmunity early in life. The MRL/lpr model mice develop several chronic inflammatory disease-like symptoms that are characteristic of early and late lupus including the generation of anti-nuclear antibodies, arthritis, dermatological manifestations, immunocomplex-mediated glomerulonephritis leading to proteinuria and eventual death. Lesser characterized phenomenon are CNS and cardiac manifestations, both of which are more common in humans. […] Mortality is higher in the females and occurs around 25 weeks of age, renal disease includes glomerulonephritis, glomerular infiltrates, sclerosis and vasculitis. Both splenomegaly and lymphomegaly associated with dermatitis can also be observed.
MRL/lpr mice are first randomized, initial bleeds collected, and body weights recorded for baseline measurements (FIG. 1). All mice are individually ear tagged and are monitored throughout the entire experiment (e.g., “Group#-Cage letter-Mouse#”, so “3B5”=Group 3 (G3), cage B, mouse #5). Mice are age-matched and treatment started at 6-8 weeks of age. Cheek bleeds and urine collection continues weekly throughout the experiment. Mice are individually tracked for several parameters including cytokine and ANA levels, proteinuria, body mass, lymphomegaly, general health, and mortality. All parameters are evaluated bi-monthly except mortality which is monitored daily. All groups consist of a minimum of at least 10-12 mice per group. Ex vivo experiments include flow cytometry analyses for plasma cells, serum complement C3 and ANA levels; urine protein and leukocytes, serum cytokine profiling, renal histo pathology, and determination of compound levels (pharmacokinetics (PK)) in the spleen, kidney and plasma. Mice are tracked on an individual basis. For all data, mice are grouped into populations and data graphed as mean±SEM. End-stage readouts are analyzed as described in the MATERIALS AND METHODS section (above) and in FIG. 1.
Vehicle alone is provided orally twice weekly (p.o.). Both proteasome inhibitors are suspended in the vehicle solution. Bi-monthly bleeds and urine are collected and frozen at […] until assayed. End analyses include kidney histology, splenocyte B-cell Elispots, flow cytometry for B and T cell populations, PD markers, serum cytokines, antibody and complement levels. In addition, urine proteinuria is determined for all animals.
In group two (G2), COMPOUND A was administered at a dose of 3 mg/kg iv twice weekly. In group three (G3), COMPOUND A was administered at a dose of 10 mg/kg p.o. twice weekly. […] In the new group five (G5), bortezomib was administered at a dose of 0.3 mg/kg iv twice weekly. Dexamethasone was administered at a dose of 1.5 mg/kg/2d (M, W, F) ip. Vehicle was 3% DMSO/10% Solutol/87% PBS. In those instances in which mice could not be injected via the iv route, agents were administered ip as noted in Table 1.

NZM mice = assay: Collagen type-I cross-linker (CTx) bone resorption biomarker ELISA, serum of NZM mice; type: in vivo, mouse; conditions: for serum CTx levels compared to vehicle: treatment groups
Description: Assay is performed as instructed by the manufacturer. Briefly, biotinylated ratlaps antigen is first added in each well of a 96-well ELISA plate. This plate is covered and incubated for 30 minutes at RT. Plate is washed five times with washing solution and incubated with standards or unknown samples in appropriate wells followed by primary Ab. Incubate overnight for 18 hours at 4° C. followed by washing with buffer. Secondary incubation includes a peroxidase conjugated goat anti-rabbit IgG added to each well and incubation at RT for 1 hour. Incubation with chromogenic substrate solution for 15 minutes at RT in the dark develops the plate for analysis. Stopping solution halts the reaction, absorbance is measured within 2 hours at 450 nm.

MRL/lpr mice [2] = assay: Renal histopathology scoring (kidney IC-GN), MRL/lpr mice; type: in vivo, mouse
Description: For histological analyses, the left kidney from each animal is removed and fixed in 10% buffered neutral 10% formalin (EMD) for 48 hours on an orbital rocker at 25° C., then washed overnight with running dH2O and stored in 70% ethanol at 4° C. until ready to be processed. Kidney stains used for histological analyses included hematoxylin and eosin (H&E), Periodic Acid Schiff (PAS) and Trichrome stains (Wistar Institute, Philadelphia, Pa.). All 3 stained sections are used by the pathologist for scoring purposes. All histological scoring is performed blinded and by an independent board certified veterinary medical pathologist (Julie Engiles, VMD, DACVP). Multiple stains are used to determine score values. Images in FIG. 17 show worst affected area of section selected blindly by the pathologist.
Kidney IC-GN Scoring Method (Smith, Dong et al. 2007):
1. Glomerular cellularity—Score 1-5: Null, low, moderate, high, severe
2. Glomerular necrosis—Score 1-5: Null, low, moderate, high, severe
3. Glomerulosclerosis—Score 1-5: Null, low, moderate, high, severe
4. Interstitial infiltration—Score 1-5: Null, low, moderate, high, severe
5. Tubular atrophy—Score 1-5: Null, low, moderate, high, severe
6. Interstitial fibrosis—Score 1-5: Null, low, moderate, high, severe
7. Vasculitis—Score 1-5: Null, low, moderate, high, severe
Specific Pathologist Definitions: • Necrosis is defined by the presence of nuclear debris/pyknosis within the glomerular tuft indicative of “necrosis.” In many samples, this is a very mild, rare finding within only a very few segments of the glomerular tuft. Also consider effacement of the glomerular tuft by PAS positive, Trichrome negative material necrosis. • Glomerular sclerosis is defined by increased fibroplasia or fibrosis within the glomerular tuft or capsule. […] Most of the vascular changes are mild and could be considered “arteriosclerosis” characterized by proliferation of the smooth muscle cells, and hyalinization of the extracellular matrix. This change may reflect hypertension secondary to glomerular pathology. In very few animals is there overt “vasculitis.” Most inflammatory changes are within the walls of the blood vessels, with little to no damage to the endothelium, and no overt hemorrhage/fibrin leakage. Many also have perivascular rims of fibroblasts.

In the case of `CC(C)C[C@H](NC(=O)[C@H](Cc1ccccc1)NC(=O)c1cnccn1)B(O)O` [bortezomib, reference compound], the “decrease in survival over that of vehicle at EOS” value (MRL/lpr mice [1]; 0.3 mg/kg iv twice weekly) is reported as 19%, the “decrease in survival over that of vehicle at EOS” value (MRL/lpr mice [1]; 0.5 mg/kg iv once weekly) is reported as 2% and the “EOS survival, true EOS mouse percentage from starting population” value (“EOS survival, true EOS mouse percentage” below) (MRL/lpr mice [1]; G4: 0.5 mg/kg iv, 1× wk) is reported as 90%. The “EOS survival, true EOS mouse percentage” value (MRL/lpr mice [1]; G5: 0.3 mg/kg iv, 2× wk) was 73%, the “tolerability of initial dose” value (MRL/lpr mice [1]; initial G4 dose 0.5 mg/kg iv twice weekly) was “animal mortality” and the “Serum CTx linker AUC, percent change vs vehicle” value (NZM mice; G3 0.3 mg/kg ip, 1× wk) was −27%. The “Serum CTx linker AUC, percent change vs vehicle” value (NZM mice; G4 0.3 mg/kg ip, 2× wk) was −35%, the “serum CTx levels compared to vehicle” value (NZM mice) was “no change in CTx levels” and the “EOS glomerular cellularity, percent change vs vehicle” value (MRL/lpr mice [2]; G4: 0.5 mg/kg iv, 1× wk) was −31%. The “EOS glomerular necrosis, percent change vs vehicle” value (MRL/lpr mice [2]; G4: 0.5 mg/kg iv, 1× wk) was −28%, the “EOS glomerulosclerosis, percent change vs vehicle” value (MRL/lpr mice [2]; G4: 0.5 mg/kg iv, 1× wk) was −42% and the “EOS interstitial infiltration, percent change vs vehicle” value (MRL/lpr mice [2]; G4: 0.5 mg/kg iv, 1× wk) was −47%. For the same compound, the “EOS vasculitis, percent change vs vehicle” value (MRL/lpr mice [2]; G4: 0.5 mg/kg iv, 1× wk) was −42%, the “Kidney EOS interstitial fibrosis, percent change vs vehicle” value (MRL/lpr mice [2]; G4: 0.5 mg/kg iv, 1× wk) was −46% and the “Kidney EOS tubular atrophy, percent change vs vehicle” value (MRL/lpr mice [2]; G4: 0.5 mg/kg iv, 1× wk) was −50%. The “EOS glomerular cellularity, percent change vs vehicle” value (MRL/lpr mice [2]; G5: 0.3 mg/kg iv, 2× wk) was −15%, the “EOS glomerular necrosis, percent change vs vehicle” value (MRL/lpr mice [2]; G5: 0.3 mg/kg iv, 2× wk) was −25% and the “EOS glomerulosclerosis, percent change vs vehicle” value (MRL/lpr mice [2]; G5: 0.3 mg/kg iv, 2× wk) was −18%. The “EOS interstitial infiltration, percent change vs vehicle” value (MRL/lpr mice [2]; G5: 0.3 mg/kg iv, 2× wk) was −39%, the “EOS vasculitis, percent change vs vehicle” value (MRL/lpr mice [2]; G5: 0.3 mg/kg iv, 2× wk) was −21% and the “Kidney EOS interstitial fibrosis, percent change vs vehicle” value (MRL/lpr mice [2]; G5: 0.3 mg/kg iv, 2× wk) was −27%. The “Kidney EOS tubular atrophy, percent change vs vehicle” value (MRL/lpr mice [2]; G5: 0.3 mg/kg iv, 2× wk) was −27%, the “maximum reduction of renal interstitial infiltration vs vehicle” value (MRL/lpr mice [2]; bortezomib groups) was 47% and the “decrease in average renal pathology score vs vehicle” value (MRL/lpr mice [2]; treated weekly with bortezomib) was 1.68 fold.

For `CC(C)C[C@H](NC(=O)[C@@H](NC(=O)c1cccc(-c2ccccc2)n1)[C@@H](C)O)B(O)O` [COMPOUND A, [(1R)-1-[[(2S,3R)-3-hydroxy-2-[6-phenyl-pyridine-2-carbonyl)amino]-1-oxobutyl]amino]-3-methylbutylboronic acid], the “increase in survival over that of vehicle” value (“increase in survival” for short) (MRL/lpr mice [1]; 0.3 mg/kg iv twice weekly regimen (so in the source)) was 8.4%, the “increase in survival” value (MRL/lpr mice [1]; 0.3 mg/kg once weekly regimen (so in the source)) was 5% and the “increase in survival” value (MRL/lpr mice [1]; 10 mg/kg oral, twice weekly regimen) was 8.4%. For the same compound, the “EOS survival, true EOS mouse percentage” value (MRL/lpr mice [1]; G1: 3 mg/kg iv, 1× wk) was 87%, the “EOS survival, true EOS mouse percentage” value (MRL/lpr mice [1]; G2: 3 mg/kg iv, 2× wk) was 100% and the “EOS survival, true EOS mouse percentage” value (MRL/lpr mice [1]; G3: 10 mg/kg po, 2× wk) was 100%. For the same compound, the “animal mortality (mice dead out of total)” value (MRL/lpr mice [1]; initial G1 dose 4 mg/kg iv once weekly, at day 71) was 4 out of 15, the “p, serum concentration of collagen type I cross-linker vs G8 Dex 1.5 mg/kg 3× wk ip” value (NZM mice; G1 3 mg/kg 1× wk ip) was “P < 0.01” and the “Serum CTx linker AUC, percent change vs vehicle” value (NZM mice; G1 3 mg/kg ip, 1× wk) was −41%. For the same compound, the “p, serum concentration of collagen type I cross-linker vs G8 Dex 1.5 mg/kg 3× wk ip” value (NZM mice; G2 3 mg/kg 2× wk ip) was “P < 0.01”, the “Serum CTx linker AUC, percent change vs vehicle” value (NZM mice; G2 3 mg/kg ip, 2× wk) was −40% and the “serum CTx levels compared to vehicle” value (NZM mice) was “no change in CTx levels”. The “decrease in average renal pathology score vs vehicle” value (MRL/lpr mice [2]; COMPOUND A treatment groups) was 1.55-1.86 fold, the “EOS glomerular cellularity, percent change vs vehicle” value (MRL/lpr mice [2]; G1: 3 mg/kg iv, 1× wk) was −41% and the “EOS glomerular necrosis, percent change vs vehicle” value (MRL/lpr mice [2]; G1: 3 mg/kg iv, 1× wk) was −38%. For the same compound, the “EOS glomerulosclerosis, percent change vs vehicle” value (MRL/lpr mice [2]; G1: 3 mg/kg iv, 1× wk) was −39%, the “EOS interstitial infiltration, percent change vs vehicle” value (MRL/lpr mice [2]; G1: 3 mg/kg iv, 1× wk) was −42% and the “EOS vasculitis, percent change vs vehicle” value (MRL/lpr mice [2]; G1: 3 mg/kg iv, 1× wk) was −33%. The “Kidney EOS interstitial fibrosis, percent change vs vehicle” value (MRL/lpr mice [2]; G1: 3 mg/kg iv, 1× wk) was −31%, the “Kidney EOS tubular atrophy, percent change vs vehicle” value (MRL/lpr mice [2]; G1: 3 mg/kg iv, 1× wk) was −35% and the “EOS glomerular cellularity, percent change vs vehicle” value (MRL/lpr mice [2]; G2: 3 mg/kg iv, 2× wk) was −36%. The “EOS glomerular necrosis, percent change vs vehicle” value (MRL/lpr mice [2]; G2: 3 mg/kg iv, 2× wk) was −47%, the “EOS glomerulosclerosis, percent change vs vehicle” value (MRL/lpr mice [2]; G2: 3 mg/kg iv, 2× wk) was −45% and the “EOS interstitial infiltration, percent change vs vehicle” value (MRL/lpr mice [2]; G2: 3 mg/kg iv, 2× wk) was −61%. The “EOS vasculitis, percent change vs vehicle” value (MRL/lpr mice [2]; G2: 3 mg/kg iv, 2× wk) was −45%, the “Kidney EOS interstitial fibrosis, percent change vs vehicle” value (MRL/lpr mice [2]; G2: 3 mg/kg iv, 2× wk) was −42% and the “Kidney EOS tubular atrophy, percent change vs vehicle” value (MRL/lpr mice [2]; G2: 3 mg/kg iv, 2× wk) was −46%. The “EOS glomerular cellularity, percent change vs vehicle” value (MRL/lpr mice [2]; G3: 10 mg/kg po, 2× wk) was −33%, the “EOS glomerular necrosis, percent change vs vehicle” value (MRL/lpr mice [2]; G3: 10 mg/kg po, 2× wk) was −31% and the “EOS glomerulosclerosis, percent change vs vehicle” value (MRL/lpr mice [2]; G3: 10 mg/kg po, 2× wk) was −33%. The “EOS interstitial infiltration, percent change vs vehicle” value (MRL/lpr mice [2]; G3: 10 mg/kg po, 2× wk) was −50%, the “EOS vasculitis, percent change vs vehicle” value (MRL/lpr mice [2]; G3: 10 mg/kg po, 2× wk) was −43% and the “Kidney EOS interstitial fibrosis, percent change vs vehicle” value (MRL/lpr mice [2]; G3: 10 mg/kg po, 2× wk) was −27%. For the same compound, the “Kidney EOS tubular atrophy, percent change vs vehicle” value (MRL/lpr mice [2]; G3: 10 mg/kg po, 2× wk) was −42% and the “renal interstitial infiltration reduction vs vehicle” value (MRL/lpr mice [2]; all 3 COMPOUND A treatment groups) was “up to 61%”.
